Read-outs that look alike come from different tables or passages of the source.
Legend:
[1] = system: human dermal skin fibroblasts; experiment: Comparative analysis of HBR, its grafting moieties alone or as a mixture, on stemness gene expression; assay type: cell-based; conditions: 12 hours, 2.0 mg/ml HBR, 1.5 mg/ml HA, 2.5 mM BU, 10^-8M RA, hydrolyzed HBR 2 mg/ml
Description: FIG. 6 is the comparative analysis of the effect of HBR, or its grafting moieties alone or as a mixture, on the expression of sternness-related genes in human dermal skin fibroblasts: cells were incubated for 12 hours in the absence or presence of 2.0 mg/ml HBR, 1.5 mg/ml HA, 2.5 mM BU, or 10^-8M RA, or exposed to a hydrolyzed (HY) HBR solution (2 mg/ml), obtained from a 2-h basic HBR hydrolysis followed by pH neutralization. This procedure affords a complete release of each single HBR grafted moiety, leading to the formation of a mixture of HA, BU, and RA, with each molecule in the concentration range reported above for the experiments based on cell incubation in the presence of each molecule alone. The amount of each transcript from exposed or unexposed cells was normalized to HPRT1, and the mRNA expression of exposed cells was plotted at each time point as fold change relative to the expression in control unexposed cells, defined as 1 (mean±S.E.; n=6).
This procedure affords a complete release of each single HBR grafted moiety, leading to the formation of a mixture of HA, BU, and RA, with each molecule in the concentration range reported above for the experiments based on (stem) cell incubation in the presence of each molecule alone.

[2] = system: Lipogems-derived hASCs; conditions: 2 mg/ml HBR, 7-day treatment
Source text: (§1) A, GATA4; B, Nkx2.5; C, neurogenin1; D, VEGF; E, MyoD. The amount of each transcript from exposed or unexposed cells was normalized to HPRT1, and the mRNA expression of exposed cells was plotted at each time point as fold change relative to the expression in control unexposed cells, defined as 1 (mean±S.E.; n=6);

[3] = system: human dermal skin fibroblasts; conditions: 2 mg/ml HBR, 7-day treatment
Source text: as §1

[4] = system: human dermal skin fibroblasts; conditions: HBR 2 mg/ml for 14 days, confocal microscopy
Source text: Scale bars are 40 μm. Representative of six separate experiments;

[5] = system: Lipogems-derived hASCs; conditions: HBR for 14 days, confocal microscopy
[6] = system: Stro-1 positive rat mesenchymal stem cells; conditions: in vitro HBR treatment; cited from earlier work
[7] = system: adult rat cardiac ventricular cardiomyocytes; conditions: in vitro HBR treatment; cited from earlier work
[8] = system: Lipogems-derived hASCs; conditions: 2 mg/ml HBR
Source text: (§2) A, Sox2; B, Oct4; C, Nanog. The amount of each transcript from exposed or unexposed cells was normalized to HPRT1, and the mRNA expression of exposed cells was plotted at each time point as fold change relative to the expression in control unexposed cells, defined as 1 (mean±S.E.; n=6);

[9] = system: human dermal skin fibroblasts; conditions: 2 mg/ml HBR
Source text: as §2

[10] = system: human skin fibroblasts; conditions: 14 days, 2 mg/ml HBR, mean±S.E., n=6
[11] = system: Lipogems-derived hASCs; conditions: 14 days, 2 mg/ml HBR, mean±S.E., n=6
[12] = later times of exposure (7-day treatment)
[13] = within the first 12-24 hours of a 7-day treatment

Compound | transcription of the stemness/pluripotency genes Sox2, Nanog and Oct4 versus unexposed control [1] | gene expression of GATA4, Nkx2.5, VEGF, neurogenin-1 and myoD [2] | gene expression of GATA4, Nkx2.5, VEGF, neurogenin-1 and myoD [3] | expression of tissue restricted marker proteins (α-myosin heavy chain, α-sarcomeric actinin, β-3 tubulin, vWF, myoD) [4] | expression of tissue restricted marker proteins (α-myosin heavy chain, α-sarcomeric actinin, β-3 tubulin, vWF, myoD) [5] | histone H4 acetylation compared with untreated cells [6] | histone H4 acetylation compared with untreated cells [7] | transcription of stemness-related genes Nanog, Sox2, Oct4 [8, 12] | transcription of stemness-related genes Nanog, Sox2, Oct4 [8, 13] | transcription of stemness-related genes Nanog, Sox2, Oct4 [9, 12] | transcription of stemness-related genes Nanog, Sox2, Oct4 [9, 13] | cells expressing vWF (endothelial marker) [10] | cells expressing β-3-tubulin (neuronal determination marker) [10] [%] | percentage of myoD (skeletal muscle)-positive elements [10] [%] | percentage of α-sarcomeric actinin (myocardial)-positive elements [10] [%] | cells expressing α-sarcomeric actinin [11] [%] | myoD positive cells [11] [%] | vWF positive cells [11] [%] | β-3-tubulin expressing cells [11] [%]
hyaluronic acid [HA] | significantly increased | – | – | – | – | – | – | – | – | – | – | – | – | – | – | – | – | – | –
hyaluronic acid esterified with butyric and retinoic acids [HBR] | significantly higher levels | significantly enhanced | significantly enhanced | appearance of cells expressing | appearance of cells expressing | significant increase | significant increase | down-regulation | significantly enhanced | down-regulation | significantly enhanced | 18.0±2.6 | 12.30±2.7 | 14.00±3.00 | 28.00±3.40 | 31.0±2.8 | 12.4±2.0 | 22.2±3.0 | 14.0±2.1
CCCC(=O)O [BU, butyric acid] | significantly increased | – | – | – | – | – | – | – | – | – | – | – | – | – | – | – | – | – | –

Reference: patent publication US20150275180A1, “Chemical preconditioning process for cell material to obtain chemical epigenetic reprogramming and pluripotency expression” (priority 2012, published 2015)
